Patent US20030074686A1, “Novel method for the generation and selection of transgenic linseed/flax plants” (priority 1999, published 2003)
Values joined by “and” are separate entries in the source; they are usually repeats but may differ in a detail not shown here. Identical values can stand only once.

Key:
[1] = system: hypocotyl segments used for the Agrobacterium tumefaciens inoculation; experiment: Sensitivity of hypocotyl segments to selection antibiotics; assay type: in vivo, flax; conditions: selective antibiotic for the initial transformation
Description: (§1) Preferably, testing the two antibiotic system in the transformation experiments is done using kanamycin for the initial selection and G-418 for the second and third rounds of selection (FIG. 1).

[2] = system: wild-type flax regenerated shoots; experiment: Tolerance of regenerated shoots to G-418; assay type: in vivo; conditions: tests using regenerated shoots
Description: as §1

[3] = system: Ed 45 288 transgenic shoots (JH5 vector); experiment: Survival of transgenic shoots on medium with G-418; assay type: in vivo, Linum usitatissimum; conditions: of four shoots
Description: as §1

[4] = system: McGregor 324 transgenic shoots (JH5 vector); experiment: Survival of transgenic shoots on medium with G-418; assay type: in vivo, Linum usitatissimum; conditions: of four shoots
Description: as §1

[5] = system: Flanders 301 transgenic shoots (JH5 vector); experiment: Survival of transgenic shoots on medium with G-418; assay type: in vivo, Linum usitatissimum; conditions: of four shoots
Description: as §1

McGregor WT shoots = experiment: Survival of wild-type shoots on medium with G-418; assay type: in vivo, Linum usitatissimum; conditions: of four shoots
Description: as §1

Flanders WT shoots = experiment: Survival of wild-type shoots on medium with G-418; assay type: in vivo, Linum usitatissimum; conditions: of four shoots
Description: as §1

Ed 45 WT shoots = experiment: Survival of wild-type shoots on medium with G-418; assay type: in vivo, Linum usitatissimum; conditions: of four shoots

SMILES: CN[C@@H]1[C@@H](O)[C@@H](O[C@@H]2[C@@H](O)[C@H](O[C@H]3O[C@H]([C@@H](C)O)[C@@H](O)[C@H](O)[C@H]3N)[C@@H](N)C[C@H]2N)OC[C@]1(C)O [G-418]
- Callus production with the antibiotic as selective agent [1]: no callus was produced
- Natural tolerance of wild-type flax [2]: no natural tolerance
- Number of shoots surviving 24 days on medium with G-418 ([3]; G-418 10 mg/l): 4
- Number of shoots surviving 24 days on medium with G-418 ([3]; G-418 20 mg/l): 4
- Number of shoots surviving 24 days on medium with G-418 ([3]; G-418 30 mg/l): 4
- Number of shoots surviving 24 days on medium with G-418 ([3]; G-418 40 mg/l): 4
- Number of shoots surviving 24 days on medium with G-418 ([3]; G-418 50 mg/l): 4 and 3
- Number of shoots surviving 24 days on medium with G-418 ([3]; G-418 70 mg/l): 4
- Number of shoots surviving 24 days on medium with G-418 ([3]; G-418 100 mg/l): 3 and 4
- Number of shoots surviving 24 days on medium with G-418 ([4]; G-418 10 mg/l): 4
- Number of shoots surviving 24 days on medium with G-418 ([4]; G-418 20 mg/l): 4
- Number of shoots surviving 24 days on medium with G-418 ([4]; G-418 30 mg/l): 4
- Number of shoots surviving 24 days on medium with G-418 ([4]; G-418 40 mg/l): 4
- Number of shoots surviving 24 days on medium with G-418 ([4]; G-418 50 mg/l): 4
- Number of shoots surviving 24 days on medium with G-418 ([4]; G-418 70 mg/l): 4
- Number of shoots surviving 24 days on medium with G-418 ([4]; G-418 100 mg/l): 4
- Number of shoots surviving 24 days on medium with G-418 ([4]; G-418 150 mg/l): 4 and 3
- Number of shoots surviving 24 days on medium with G-418 ([5]; G-418 10 mg/l): 4
- Number of shoots surviving 24 days on medium with G-418 ([5]; G-418 20 mg/l): 4
- Number of shoots surviving 24 days on medium with G-418 ([5]; G-418 30 mg/l): 3 and 4
- Number of shoots surviving 24 days on medium with G-418 ([5]; G-418 40 mg/l): 4
- Number of shoots surviving 24 days on medium with G-418 ([5]; G-418 50 mg/l): 4
- Number of shoots surviving 24 days on medium with G-418 ([5]; G-418 70 mg/l): 4
- Number of shoots surviving 24 days on medium with G-418 ([5]; G-418 100 mg/l): 4 and 3
- Number of shoots surviving 24 days on medium with G-418 ([5]; G-418 150 mg/l): 2 and 4
- Number of shoots surviving 24 days on medium with G-418 ([5]; G-418 200 mg/l): 1 and 2
- Number of shoots surviving 24 days on medium with G-418 (McGregor WT shoots; G-418 10 mg/l): 4
- Number of shoots surviving 24 days on medium with G-418 (McGregor WT shoots; G-418 20 mg/l): 4 and 3
- Number of shoots surviving 24 days on medium with G-418 (McGregor WT shoots; G-418 30 mg/l): 2
- Number of shoots surviving 24 days on medium with G-418 (McGregor WT shoots; G-418 50 mg/l): 0
- Number of shoots surviving 24 days on medium with G-418 (McGregor WT shoots; G-418 70 mg/l): 0
- Number of shoots surviving 24 days on medium with G-418 (McGregor WT shoots; G-418 100 mg/l): 0
- Number of shoots surviving 24 days on medium with G-418 (McGregor WT shoots; G-418 150 mg/l): 0
- Number of shoots surviving 24 days on medium with G-418 (McGregor WT shoots; G-418 200 mg/l): 0
- Number of shoots surviving 24 days on medium with G-418 (Flanders WT shoots; G-418 10 mg/l): 4
- Number of shoots surviving 24 days on medium with G-418 (Flanders WT shoots; G-418 20 mg/l): 3 and 4
- Number of shoots surviving 24 days on medium with G-418 (Flanders WT shoots; G-418 50 mg/l): 0
- Number of shoots surviving 24 days on medium with G-418 (Flanders WT shoots; G-418 70 mg/l): 0
- Number of shoots surviving 24 days on medium with G-418 (Flanders WT shoots; G-418 100 mg/l): 0
- Number of shoots surviving 24 days on medium with G-418 (Flanders WT shoots; G-418 150 mg/l): 0
- Number of shoots surviving 24 days on medium with G-418 (Flanders WT shoots; G-418 200 mg/l): 0
- Number of shoots surviving 24 days on medium with G-418 (Ed 45 WT shoots; G-418 10 mg/l): 4
- Number of shoots surviving 24 days on medium with G-418 (Ed 45 WT shoots; G-418 20 mg/l): 1 and 2
- Number of shoots surviving 24 days on medium with G-418 (Ed 45 WT shoots; G-418 30 mg/l): 1 and 2
- Number of shoots surviving 24 days on medium with G-418 (Ed 45 WT shoots; G-418 40 mg/l): 0
- Number of shoots surviving 24 days on medium with G-418 (Ed 45 WT shoots; G-418 50 mg/l): 0
- Number of shoots surviving 24 days on medium with G-418 (Ed 45 WT shoots; G-418 70 mg/l): 0
- Number of shoots surviving 24 days on medium with G-418 (Ed 45 WT shoots; G-418 100 mg/l): 0
- Number of shoots surviving 24 days on medium with G-418 (Ed 45 WT shoots; G-418 150 mg/l): 0
- Number of shoots surviving 24 days on medium with G-418 (Ed 45 WT shoots; G-418 200 mg/l): 0
